Measurements from US20240228504A1, “SUBSTITUTED TRICYCLIC AMIDES, ANALOGUES THEREOF, AND METHODS USING SAME” (Arbutus Biopharma Corporation, priority 2020, published 2024).

Tested on: HBV rcDNA in HepDE19 cells
Experiment: HepDE19 assay with bDNA quantitation of HBV rcDNA
Type: cell-based, hepatitis B virus
Details: Hepatitis B virus, HepDE19, HepDE19 assay, inhibition of rcDNA formation, bDNA quantitation; read-out: DE-19bDNA EC50

**Q.** How did the EC50 turn out when `CN(C(=O)c1cc2c(C(F)F)c(F)ccc2[nH]1)[C@@H]1COCc2[nH]c(=O)c3cc(F)c(F)cc3c21` [Compound 254, (S)-N-(8,9-Difluoro-6-oxo-1,4,5,6-tetrahydro-2H-pyrano[3,4-c]isoquinolin-1-yl)-4-(difluoromethyl)-5-fluoro-N-methyl-1H-indole-2-carboxamide] was run?
**A.** 0.01 µM

**Q.** `CN(C(=O)c1ccn2ccccc12)[C@@H]1COCc2[nH]c(=O)c3cc(F)c(F)cc3c21` [Compound 261, (S)-N-(8,9-Difluoro-6-oxo-1,4,5,6-tetrahydro-2H-pyrano[3,4-c]isoquinolin-1-yl)-N-methylindolizine-1-carboxamide] was tested. Which EC50 did it give?
**A.** 6.4 µM

**Q.** With `CN(C(=O)c1ccc(-c2ccc(F)cc2)c(F)c1)[C@@H]1COCc2[nH]c(=O)c3cc(F)c(F)cc3c21` [Compound 262, (S)-N-(8,9-Difluoro-6-oxo-1,4,5,6-tetrahydro-2H-pyrano[3,4-c]isoquinolin-1-yl)-2,4′-difluoro-N-methyl-[1,1′-biphenyl]-4-carboxamide] as the molecule, how does the EC50 read?
**A.** 17.2 µM

**Q.** Which EC50 does the source give for `CN(C(=O)c1cc(-c2ccc(F)cc2)on1)[C@@H]1COCc2[nH]c(=O)c3cc(F)c(F)cc3c21` [Compound 263, (S)-N-(8,9-Difluoro-6-oxo-1,4,5,6-tetrahydro-2H-pyrano[3,4-c]isoquinolin-1-yl)-5-(4-fluorophenyl)-N-methylisoxazole-3-carboxamide] here?
**A.** 14.7 µM

**Q.** With `CN(C(=O)c1cc2cccc(C(F)F)n2c1)[C@@H]1COCc2[nH]c(=O)c3cc(F)c(F)cc3c21` [Compound 266, (S)-N-(8,9-Difluoro-6-oxo-1,4,5,6-tetrahydro-2H-pyrano[3,4-c]isoquinolin-1-yl)-5-(difluoromethyl)-N-methylindolizine-2-carboxamide] as the molecule, how does the EC50 read?
**A.** 0.02 µM

**Q.** How did the EC50 turn out when `CN(C(=O)c1cc2nc(Br)ccc2[nH]1)[C@@H]1COCc2[nH]c(=O)c3cc(F)c(F)cc3c21` [Compound 268, (S)-5-Bromo-N-(8,9-difluoro-6-oxo-1,4,5,6-tetrahydro-2H-pyrano[3,4-c]isoquinolin-1-yl)-N-methyl-1H-pyrrolo[3,2-b]pyridine-2-carboxamide] was run?
**A.** 1.8 µM

**Q.** How did the EC50 turn out when `CN(C(=O)C1Cc2ccccc21)[C@@H]1COCc2[nH]c(=O)c3cc(F)c(F)cc3c21` (stereo partly drawn) [Compound 269, N-((S)-8,9-Difluoro-6-oxo-1,4,5,6-tetrahydro-2H-pyrano[3,4-c]isoquinolin-1-yl)-N-methylbicyclo[4.2.0]octa-1(6),2,4-triene-7-carboxamide] was run?
**A.** 18.6 µM

**Q.** For `CN(C(=O)C1(O)Cc2ccccc2C1)[C@@H]1COCc2[nH]c(=O)c3cc(F)c(F)cc3c21` [Compound 275, (S)-N-(8,9-Difluoro-6-oxo-1,4,5,6-tetrahydro-2H-pyrano[3,4-c]isoquinolin-1-yl)-2-hydroxy-N-methyl-2,3-dihydro-1H-indene-2-carboxamide], which EC50 is on record?
**A.** 3.84 µM

**Q.** `CN(C(=O)C1(O)Cc2cc(F)c(F)cc2C1)[C@@H]1COCc2[nH]c(=O)c3cc(F)c(F)cc3c21` [Compound 276, (S)-N-(8,9-Difluoro-6-oxo-1,4,5,6-tetrahydro-2H-pyrano[3,4-c]isoquinolin-1-yl)-5,6-difluoro-2-hydroxy-N-methyl-2,3-dihydro-1H-indene-2-carboxamide] was tested. Which EC50 did it give?
**A.** 1.95 µM

**Q.** How did the EC50 turn out when `Cc1cc2ccc(C(=O)N(C)[C@@H]3COCc4[nH]c(=O)c5cc(F)c(F)cc5c43)cn2c1` [Compound 277, (S)-N-(8,9-Difluoro-6-oxo-1,4,5,6-tetrahydro-2H-pyrano[3,4-c]isoquinolin-1-yl)-N,2-dimethylindolizine-6-carboxamide] was run?
**A.** 0.42 µM

**Q.** `CN(C(=O)c1cc2sccc2[nH]1)[C@@H]1COCc2[nH]c(=O)c3cc(F)c(F)cc3c21` [Compound 278, (S)-N-(8,9-Difluoro-6-oxo-1,4,5,6-tetrahydro-2H-pyrano[3,4-c]isoquinolin-1-yl)-N-methyl-4H-thieno[3,2-b]pyrrole-5-carboxamide] was tested. Which EC50 did it give?
**A.** 0.02 µM

**Q.** With `CN(C(=O)C1Cc2ccc(F)cc21)[C@@H]1COCc2[nH]c(=O)c3cc(F)c(F)cc3c21` (stereo partly drawn) [Compound 279, N-((S)-8,9-Difluoro-6-oxo-1,4,5,6-tetrahydro-2H-pyrano[3,4-c]isoquinolin-1-yl)-4-fluoro-N-methylbicyclo[4.2.0]octa-1(6),2,4-triene-7-carboxamide] as the molecule, how does the EC50 read?
**A.** 9.5 µM

**Q.** With `CN(C(=O)c1cc2cc(F)c(F)cc2[nH]1)[C@@H]1COCc2nc(OCCN)c3cc(F)c(F)cc3c21` [Compound 280, (S)-N-(6-(2-aminoethoxy)-8,9-difluoro-1,4-dihydro-2H-pyrano[3,4-c]isoquinolin-1-yl)-5,6-difluoro-N-methyl-1H-indole-2-carboxamide] as the molecule, how does the EC50 read?
**A.** 0.02 µM

**Q.** With `CN(C(=O)C1CN(c2ccsc2)C1)[C@@H]1COCc2[nH]c(=O)c3cc(F)c(F)cc3c21` [Compound 282, (S)-N-(8,9-Difluoro-6-oxo-1,4,5,6-tetrahydro-2H-pyrano[3,4-c]isoquinolin-1-yl)-N-methyl-1-(thiophen-3-yl)azetidine-3-carboxamide] as the molecule, how does the EC50 read?
**A.** 0.29 µM

**Q.** Which EC50 does the source give for `CN(C(=O)c1ccc(-c2cccc(F)c2)cc1)[C@@H]1COCc2[nH]c(=O)c3cc(F)c(F)cc3c21` [Compound 283, (S)-N-(8,9-Difluoro-6-oxo-1,4,5,6-tetrahydro-2H-pyrano[3,4-c]isoquinolin-1-yl)-3′-fluoro-N-methyl-[1,1′-biphenyl]-4-carboxamide] here?
**A.** 4.7 µM

**Q.** `CN(C(=O)C1CN(c2cscc2Br)C1)[C@@H]1COCc2[nH]c(=O)c3cc(F)c(F)cc3c21` [Compound 284, (S)-1-(4-Bromothiophen-3-yl)-N-(8,9-difluoro-6-oxo-1,4,5,6-tetrahydro-2H-pyrano[3,4-c]isoquinolin-1-yl)-N-methylazetidine-3-carboxamide] was tested. Which EC50 did it give?
**A.** 0.05 µM

**Q.** How did the EC50 turn out when `CN(C(=O)c1ccc(-c2ccccc2F)cc1)[C@@H]1COCc2[nH]c(=O)c3cc(F)c(F)cc3c21` [Compound 285, (S)-N-(8,9-Difluoro-6-oxo-1,4,5,6-tetrahydro-2H-pyrano[3,4-c]isoquinolin-1-yl)-2′-fluoro-N-methyl-[1,1′-biphenyl]-4-carboxamide] was run?
**A.** 19.7 µM

**Q.** How did the EC50 turn out when `CN(C(=O)c1ccc(-c2cc(F)cc(F)c2)cc1)[C@@H]1COCc2[nH]c(=O)c3cc(F)c(F)cc3c21` [Compound 286, (S)-N-(8,9-Difluoro-6-oxo-1,4,5,6-tetrahydro-2H-pyrano[3,4-c]isoquinolin-1-yl)-3′,5′-difluoro-N-methyl-[1,1′-biphenyl]-4-carboxamide] was run?
**A.** 12.9 µM

**Q.** How did the EC50 turn out when `CN(C(=O)c1ccc(-c2cc(F)cc(F)c2)c(F)c1)[C@@H]1COCc2[nH]c(=O)c3cc(F)c(F)cc3c21` [Compound 287, (S)-N-(8,9-Difluoro-6-oxo-1,4,5,6-tetrahydro-2H-pyrano[3,4-c]isoquinolin-1-yl)-2,3′,5′-trifluoro-N-methyl-[1,1′-biphenyl]-4-carboxamide] was run?
**A.** 12.7 µM

**Q.** Which EC50 does the source give for `CN(C(=O)c1cccc(-c2ccccc2)c1)[C@@H]1COCc2[nH]c(=O)c3cc(F)c(F)cc3c21` [Compound 288, (S)-N-(8,9-Difluoro-6-oxo-1,4,5,6-tetrahydro-2H-pyrano[3,4-c]isoquinolin-1-yl)-N-methyl-[1,1′-biphenyl]-3-carboxamide] here?
**A.** 11.3 µM

**Q.** For `CN(C(=O)c1cccc(-c2ccc(F)cc2)c1)[C@@H]1COCc2[nH]c(=O)c3cc(F)c(F)cc3c21` [Compound 289, (S)-N-(8,9-Difluoro-6-oxo-1,4,5,6-tetrahydro-2H-pyrano[3,4-c]isoquinolin-1-yl)-4′-fluoro-N-methyl-[1,1′-biphenyl]-3-carboxamide], which EC50 is on record?
**A.** 6.4 µM
